Each structure is given as a SMILES string.

Experiment [1] relates to MOLM-14 D835Y cells, FLT3 ITD and FLT3 D835Y. Nature of the experiment: Cell proliferation assay (CellTiter-Glo), MOLM-14 D835Y. Type of experiment: cell-based. To be noted: Homo sapiens, 72 h, 3d-Growth, GMean. The text has this: (§1) The FLT3 inhibitors may be assessed using the MOLM-14, Acute Myeloid Leukemia cell line that endogenously expresses FLT3 ITD or derivatives of the human FLT3 AML cell line which acquired the D835Y (activation loop) of F691L (gatekeeper) mutation after selection in escalating doses of the FLT3 Inhibitor AC220. FLT3 inhibitors may also be assessed using cells that are engineered to express mutant FLT3. For engineered cells, murine Ba/F3 cells were transfected with full-length FLT3 ITD/D835Y mutations. The parental BA/F3 cells are dependent upon Interleukin-3 (IL-3) for survival, and introduction of the FLT3 constructs rendered these cells dependent upon FLT3 kinase activity when cultured in the absences of IL-3. Engineered BA/F3 cell growth assays can be performed in either the […] of IL-3, to assess the compound inhibition of FLT3 or to detect the presence of off-target activity, respectively. Inhibitors of FLT3 kinase activity reduce or eliminate the FLT3 oncogenic signaling, resulting in reduced cell proliferation. This inhibition is measured as a function of compound concentration to asses IC50 values.
(§2) Cell lines used in proliferation assays are as follows in Table 3:
(§3) Cells were seeded at 1×10^4 cells per well of a 96 well cell culture plate in 50 μl of cell culture medium. Compounds were dissolved in DMSO, typically at a concentration of 0.5 mM and were serially diluted 1:3 for a total of eight points and added to the cells to final concentrations of […], 0.0041, 0.0014 and 0.00046 μM in 100 μl cell culture medium (final concentration 0.2% DMSO). […] The cells were incubated at 37° C., 5% CO2 for three days. CellTiter-Glo Buffer (Promega Cell Viability Assay catalog #G7573) and substrate were equilibrated to room temperature, and enzyme/substrate Recombinant Firefly Luciferase/Beetle Luciferin was reconstituted. The cell plates were equilibrated to room temperature for 30 minutes, then lysed by addition of an equivalent volume of the Celltiter-Glo Reagent. The plate was mixed for 10 minutes on a plate shaker to lyse the cells. The plates were read on a Tecan M1000 using Luminescence protocol modified to read 0.1 s per well. The luminescence reading assesses the ATP content, which correlates directly with cell number such that the reading as a function of compound concentration was used to determine the IC50 value.
On the technique in general: In ATP-based viability assays light output follows the ATP content of the culture.

Experiment [2] addresses T1, c-KIT (Homo sapiens, UniProt P10721).
T1 construct: purchased Millipore 14-559K
Nature of the experiment: AlphaScreen kinase assay with recombinant enzyme, c-KIT. Type of experiment: biochemical. To be noted: 100ATP, 8pt, GMean. How it is done: (§4) In order to determine the effect of compounds on FLT3 catalytic activity, kinase assays using recombinant enzymes and AlphaScreen® technology have been established. The catalytic activity of c-kit activity was also measured to determine selectivity of the compounds. When the kinases are catalytically active, they phosphorylate a biotinylated peptide substrate on tyrosine residues. Using AlphaScreen® technology, the ability of the compounds to affect the catalytic activity of the kinases can be measured quantitatively. The peptide substrate is immobilized by the AlphaScreen® Streptavidin Donor beads and, upon phosphorylation by a tyrosine kinase, can bind to AlphaScreen® Anti-Phosphotyrosine (PY20) Acceptor beads. Upon excitation of these beads with laser light at 680 nm, singlet oxygen is produced. This singlet oxygen is rapidly quenched, unless the AlphaScreen® Anti-Phosphotyrosine (PY20) Acceptor beads are in close proximity, in which case a proximity signal can be measured at 580 nm. In the presence of catalytic activity, there is a very strong proximity signal. Selective kinase inhibitors affect a decrease in this proximity signal through a decrease in tyrosine phosphorylation of the peptide substrate.
(§5) The assay was performed as summarized below.
(§6) Poly (Glu4-Tyr) Peptide, biotin conjugate [Biotin-GG(EEEEY)10EE] (SEQ ID NO: 4)
(§7) Final concentration=30 nM
(§8) Final concentration for IC50 determination=10 μM (FLT3-D835Y or FLT3-ITD) or 100 μM (c-KIT)
(§9) AlphaScreen® Phosphotyrosine (PY20) Assay Kit
(§10) Final concentration=10 μg/mL
(§11) Dilute compounds in DMSO to 20× final concentration.
(§12) Add 1 μl of compound to each well of 384 well reaction plate (Perkin Elmer #6005359).
(§13) Mix enzyme and Poly (Glu4-Tyr) Peptide substrate at 1.33× final concentration in assay buffer.
(§14) Mix ATP at 5× final concentration in assay buffer.
(§15) Add 15 μL enzyme/substrate mixture to the reaction plate.
(§16) Add 4 μL of ATP to the reaction plate.
(§17) Mix Streptavidin Donor beads at 6× final concentration in Stop/Detection buffer.
(§18) Add 5 μL Streptavidin Donor beads to the reaction plate. Centrifuge 1 minute, shake to mix, and incubate at room temperature for 20 minutes.
(§19) Mix Anti-Phosphotyrosine (PY20) Acceptor beads at 6× final concentration in Stop/Detection buffer.
(§20) Add 5 μL Anti-Phosphotyrosine (PY20) beads to the reaction plate.
(§21) Centrifuge 1 minute, shake to mix, and incubate at room temperature for 60 minutes.
(§22) Read plate on Wallac EnVision™ 2103 Multilabel Reader.

The target of experiment [3] is T2, BA/F3-FLT3-ITD + D835Y cells (Homo sapiens, UniProt P36888, D835Y, cells depend on it, form not given).
T2 sequence (P36888 1-993 D835Y): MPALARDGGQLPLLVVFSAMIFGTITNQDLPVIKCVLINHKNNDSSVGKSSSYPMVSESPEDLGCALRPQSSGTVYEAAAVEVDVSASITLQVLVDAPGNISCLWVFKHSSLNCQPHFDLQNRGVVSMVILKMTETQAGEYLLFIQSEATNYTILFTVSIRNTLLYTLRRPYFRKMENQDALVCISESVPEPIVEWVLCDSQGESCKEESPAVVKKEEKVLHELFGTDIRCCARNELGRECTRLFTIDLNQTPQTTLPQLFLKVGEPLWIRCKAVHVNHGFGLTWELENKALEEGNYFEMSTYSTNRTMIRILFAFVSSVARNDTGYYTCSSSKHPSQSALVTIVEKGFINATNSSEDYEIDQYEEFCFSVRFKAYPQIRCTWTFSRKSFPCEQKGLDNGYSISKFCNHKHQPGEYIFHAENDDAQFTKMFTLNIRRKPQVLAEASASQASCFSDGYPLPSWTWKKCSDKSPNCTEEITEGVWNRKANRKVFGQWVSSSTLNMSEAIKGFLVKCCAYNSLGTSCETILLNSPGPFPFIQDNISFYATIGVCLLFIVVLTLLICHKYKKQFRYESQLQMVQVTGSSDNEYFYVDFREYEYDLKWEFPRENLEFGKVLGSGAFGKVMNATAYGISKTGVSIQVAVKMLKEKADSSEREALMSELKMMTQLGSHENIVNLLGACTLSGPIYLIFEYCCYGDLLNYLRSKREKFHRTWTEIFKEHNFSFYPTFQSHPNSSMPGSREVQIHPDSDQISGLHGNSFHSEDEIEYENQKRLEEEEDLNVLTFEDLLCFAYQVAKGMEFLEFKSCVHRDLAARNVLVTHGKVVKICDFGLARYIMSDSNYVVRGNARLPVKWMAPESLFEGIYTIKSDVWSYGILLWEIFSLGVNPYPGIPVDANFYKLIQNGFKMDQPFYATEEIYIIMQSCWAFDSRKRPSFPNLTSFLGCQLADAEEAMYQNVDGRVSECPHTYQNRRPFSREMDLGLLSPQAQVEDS
Nature of the experiment: Cell proliferation assay (CellTiter-Glo), engineered BA/F3 cells. Type of experiment: cell-based, murine. The note with it: BaF3 FLT3 ITD/D835Y cells, 3d-Growth; read-out: BaF3_FLT3 ITD/D835Y 3d-Growth: IC50.
Description: as §1, §2, §3

Experiment [4] has as its target T3, FLT3-D835Y (Homo sapiens, UniProt P36888, D835Y).
T3 construct: purchased Invitrogen PV3967
T3 sequence (P36888 27-993 D835Y): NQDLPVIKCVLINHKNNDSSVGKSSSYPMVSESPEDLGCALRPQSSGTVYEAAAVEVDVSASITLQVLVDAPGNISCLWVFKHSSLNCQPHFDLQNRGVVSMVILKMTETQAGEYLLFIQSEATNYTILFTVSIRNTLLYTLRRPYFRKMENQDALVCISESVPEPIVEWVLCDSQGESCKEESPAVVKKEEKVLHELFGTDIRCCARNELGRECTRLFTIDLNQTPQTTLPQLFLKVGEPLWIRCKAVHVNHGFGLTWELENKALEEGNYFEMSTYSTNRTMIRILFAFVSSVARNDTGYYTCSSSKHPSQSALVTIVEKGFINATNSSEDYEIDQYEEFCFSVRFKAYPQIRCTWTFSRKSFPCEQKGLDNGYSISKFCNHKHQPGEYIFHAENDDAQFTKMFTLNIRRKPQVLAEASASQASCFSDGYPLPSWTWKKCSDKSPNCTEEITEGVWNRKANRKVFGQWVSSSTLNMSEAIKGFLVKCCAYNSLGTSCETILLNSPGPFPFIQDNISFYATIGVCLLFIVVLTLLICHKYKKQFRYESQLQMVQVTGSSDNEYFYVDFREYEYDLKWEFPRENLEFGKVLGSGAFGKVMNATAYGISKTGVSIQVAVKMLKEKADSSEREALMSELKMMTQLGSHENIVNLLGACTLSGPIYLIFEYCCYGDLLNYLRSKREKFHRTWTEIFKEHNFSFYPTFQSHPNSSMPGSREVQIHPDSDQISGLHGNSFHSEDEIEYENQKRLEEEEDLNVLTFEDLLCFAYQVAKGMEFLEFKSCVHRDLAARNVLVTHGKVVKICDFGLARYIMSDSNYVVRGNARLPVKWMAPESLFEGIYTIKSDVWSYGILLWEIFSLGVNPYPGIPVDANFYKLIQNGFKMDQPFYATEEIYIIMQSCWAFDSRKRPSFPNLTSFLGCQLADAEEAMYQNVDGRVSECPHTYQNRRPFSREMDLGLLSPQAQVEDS
Nature of the experiment: AlphaScreen kinase assay with recombinant enzyme, FLT3-D835Y. Type of experiment: biochemical. The note with it: 8pt, GMean. How it is done:
as §4, §5, §6, §7, §8, §9, §10, §11, §12, §13, §14, §15, §16, §17, §18, §19, §20, §21, §22
Background: Alpha assays give light when donor and acceptor beads are brought close together.

For experiment [5], the system named is MOLM-14 F691L cells, FLT3 ITD and FLT3 F691L. Nature of the experiment: Cell proliferation assay (CellTiter-Glo), MOLM-14 F691L. Format: cell-based. The note with it: Homo sapiens, 72 h, 3d-Growth, GMean.
Description: as §1, §2, §3

T1 sequence (P10721 26-976): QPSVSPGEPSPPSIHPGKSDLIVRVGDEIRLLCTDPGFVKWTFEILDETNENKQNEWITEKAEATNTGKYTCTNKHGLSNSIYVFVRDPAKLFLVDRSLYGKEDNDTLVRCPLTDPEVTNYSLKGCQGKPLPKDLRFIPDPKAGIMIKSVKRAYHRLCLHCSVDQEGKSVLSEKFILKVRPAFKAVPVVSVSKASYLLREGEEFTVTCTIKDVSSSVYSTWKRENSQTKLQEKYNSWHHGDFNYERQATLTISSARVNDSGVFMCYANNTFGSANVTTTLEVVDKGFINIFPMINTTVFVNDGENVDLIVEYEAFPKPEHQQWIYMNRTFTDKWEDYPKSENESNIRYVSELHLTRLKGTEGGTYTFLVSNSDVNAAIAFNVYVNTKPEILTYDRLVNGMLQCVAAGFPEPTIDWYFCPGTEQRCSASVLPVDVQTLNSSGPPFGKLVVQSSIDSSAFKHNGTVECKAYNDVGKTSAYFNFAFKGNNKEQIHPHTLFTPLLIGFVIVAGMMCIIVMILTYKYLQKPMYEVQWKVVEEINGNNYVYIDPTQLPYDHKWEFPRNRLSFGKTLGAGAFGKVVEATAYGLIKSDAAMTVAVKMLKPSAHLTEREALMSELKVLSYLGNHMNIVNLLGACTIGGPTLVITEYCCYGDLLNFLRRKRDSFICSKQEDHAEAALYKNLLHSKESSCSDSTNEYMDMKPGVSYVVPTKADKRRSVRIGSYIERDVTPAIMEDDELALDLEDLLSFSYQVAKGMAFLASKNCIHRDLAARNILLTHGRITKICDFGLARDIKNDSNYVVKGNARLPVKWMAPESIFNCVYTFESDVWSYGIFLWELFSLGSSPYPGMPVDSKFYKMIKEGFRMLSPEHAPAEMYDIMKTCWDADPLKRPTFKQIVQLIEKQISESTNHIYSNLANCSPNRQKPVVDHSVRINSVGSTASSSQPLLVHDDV

For the molecule `CC(C)(C#N)CNS(=O)(=O)c1cccc(-c2cnc3[nH]c(-c4ccccc4)cc3c2)n1` [Compound P-0108, N-(2-cyano-2-methyl-propyl)-6-(2-phenyl-1H-pyrrolo[2,3-b]pyridin-5-yl)pyridine-2-sulfonamide], the values for the IC50 in experiment [1] and in experiment [2] were 0.0001 to 10 µM and 50 to 100 µM, respectively. Besides, the GI50 in experiment [3] is 0.0001 to 10 µM.
On to `N#CCCCNC(=O)c1cccc(-c2cnc3[nH]c(-c4ccccc4)cc3c2)n1` [Compound P-0128, N-(3-cyanopropyl)-6-(2-phenyl-1H-pyrrolo[2,3-b]pyridin-5-yl)pyridine-2-carboxamide], for which the IC50 in experiment [4], in experiment [1] and in experiment [5] was 0.0001 to 10 µM each time.
`CC(C)(C#N)NC(=O)c1cccc(-c2cnc3[nH]c(-c4cnn(C5CCNCC5)c4)c(Cl)c3c2)n1` [Compound P-0207, 6-[3-chloro-2-[1-(4-piperidyl)pyrazol-4-yl]-1H-pyrrolo[2,3-b]pyridin-5-yl]-N-(1-cyano-1-methyl-ethyl)pyridine-2-carboxamide]: the IC50 in experiment [4], in experiment [1] and in experiment [5] was 0.0001 to 10 µM in each case.

As a reminder, the IC50 is the concentration needed to halve the response being measured.

Source of the values: US9938273B2 (Plexxikon Inc., priority 2015, dated 2018).
